The results in this text go back to US20220401408A1, “COMPOSITIONS AND METHODS FOR RESCUING RETINAL AND CHOROIDAL STRUCTURE AND FUNCTION” (AUCKLAND UNISERVICES LIMITED, priority 2019, published 2022).

In the assay the test system is light damaged rats. The assay is described as follows: Optical coherence tomography (OCT) of retinal layers and choroid in light damage model. The format is in vivo, Sprague Dawley (SD) rats. The method, then: Retina Light Damage Model of Dry Age-Related Macular Degeneration—The intense light damage model was prepared and carried out as described in previous studies. Mat Nor N, Guo C X, Rupenthal ID, Chen Y S, Green C R, Acosta M L. Sustained Connexin43 Mimetic Peptide Release From Loaded Nanoparticles Reduces Retinal and Choroidal Photodamage. Invest Ophthalmol Vis Sci. 2018; 59:3682-93; Guo C X, Mat Nor M N, Danesh-Meyer H V, Vessey K A, Fletcher E L, O'Carroll S J, et al. Connexin43 Mimetic Peptide Improves Retinal Function and Reduces Inflammation in a Light-Damaged Albino Rat Model. Invest Ophthalmol Vis Sci. 2016; 57:3961-73; Guo C X, Tran H, Green C R, Danesh-Meyer H V, Acosta M L. Gap junction proteins in the light-damaged albino rat. Mol Vis. 2014; 20:670-82; Noell W K, Walker V S, Kang B S, Berman S. Retinal damage by light in rats. Invest Ophthalmol. 1966; 5:450-73. The light damage rat model was selected as it allows direct comparison with this and other drugs. Kim Y, Griffin J M, Nor M N M, Zhang J, Freestone P S, Danesh-Meyer H V, et al. Tonabersat Prevents Inflammatory Damage in the Central Nervous System by Blocking Connexin43 Hemichannels. Neurotherapeutics. 2017; 14:1148-65; Mat Nor N, Guo C X, Rupenthal ID, Chen Y S, Green C R, Acosta M L, supra; Guo C X, Mat Nor M N, Danesh-Meyer H V, Vessey K A, Fletcher E L, O'Carroll S J, et al., supra. […] All experimental procedures were approved by the University of Auckland Animal Ethics Committee, approval No. 001462 and comply with the Association for Research in Vision and Ophthalmology (ARVO) statement for the use of animals in eye research. Six to eight-week old albino Sprague Dawley (SD) rats (200-250 g; male or female) were used. Adult SD rats were exposed to continuous bright light for 24 hours, consistently starting at 9:00 am to minimize possible time-of-day variability. Light exposure was to two animals at a time to prevent rats from taking cover using each other as a shield. The LD protocol and intervention was repeated until the number of individuals for each dose group was obtained (n=7 per group). The light luminance was 2700 lux, generated using fluorescent lamps (Philips Master TLD 18W/965; Koninklijke Philips Electronics N.V., China) directly above the animal cages. The lamps were cool and emitted broadband light, from 380 to 760 nm wavelength, with the average intensity at the top of the cage being 120 W/m2. Animals were free to move within the cage with access to food and water ad libidum. Baseline electroretinography (ERG) readings and optical coherence tomography (OCT) images were collected prior to the light damage. After light exposure, animals were returned to normal light-dark cycle conditions (12 hours light, 174 lux and 12 hours darkness, <62 lux) for 24 hours, 1 week or 2 weeks (and for one group 3 months).
Tonabersat treatment of light damaged rats—LD rats were randomly assigned to low, middle or high dose of tonabersat (n=7 per group). The mixture of tonabersat in peanut butter was prepared fresh for each experiment. Three oral tonabersat doses were tested (n=7 per group) with follow up to 2 weeks post-injury, and the highest dose group then split with three animals taken for histological analysis, and four animals followed to 3 months post-injury. There was a ten-animal vehicle only control group. The group of rats that were kept for 3 months were maintained in separate cages for drug or vehicle-treated animals, but were kept under the same light conditions. Tonabersat was fed to animals in peanut butter at 0.26 mg/kg (on average 0.08 mg delivered, estimated circulating concentration 10 μM), 0.8 mg/kg (average of 0.24 mg delivered; 30 μM circulating) or 2.4 mg/kg (on average 0.72 mg delivered; 90 μM circulating) following consideration of previous unsuccessful human trial dosing levels. Silberstein S D. Tonabersat, a novel gap-junction modulator for the prevention of migraine. Cephalalgia. […]

[1] abbreviates: 2.4 mg/kg oral, 3 months post treatment, p<0.001.
[2] abbreviates: all three oral doses, 24 hours, 1 week and 2 weeks post light damage.

`CC(=O)c1ccc2c(c1)[C@H](NC(=O)c1ccc(F)c(Cl)c1)[C@H](O)C(C)(C)O2` [tonabersat, N-[(3S,4S)-6-acetyl-3-hydroxy-2,2-dimethyl-3,4-dihydrochromen-4-yl]-3-chloro-4-fluorobenzamide]: where the note is “2.4 mg/kg oral, 3 months”, the “ONL thickness compared to same animals prior to light damage” value is “no difference” and the “choroidal thickness compared to same rats prior to light damage” value was “no difference”. Further, under setting [1], the “choroidal thickness compared to vehicle treatment group” value is recorded as “significantly preserved” and the “retinal thickness compared to vehicle treatment group” value is on record as “significantly preserved”. Besides, the “INL thickness compared to same animals prior to light damage” value (2.4 mg/kg oral, 3 months, p<0.05) is given as “slightly reduced thickness”. Also, under setting [2], the “choroidal thickness (OCT)” value was “significantly preserved” and the “retinal thickness (OCT)” value was “significantly preserved”. In addition, for the setting “lowest and middle dose (0.26, 0.8 mg/kg), up to 2 weeks post light damage”, the “thinning in the ONL or choroid” value is “some thinning at the lowest and middle dose, it was not significant”.
